Publication PMC6613932 (Bioorganic & medicinal chemistry letters, 2018)

What follows are compounds tested against 5-HT2AR (Homo sapiens, UniProt P28223) (assay: Inhibition of 5-HT). Conditions: inhibition of 1 μM 5-HT-evoked Cai2+ release; compared with parent (+)-M100907.
Format: cell-based

Sequence of 5-HT2AR (P28223 whole entry): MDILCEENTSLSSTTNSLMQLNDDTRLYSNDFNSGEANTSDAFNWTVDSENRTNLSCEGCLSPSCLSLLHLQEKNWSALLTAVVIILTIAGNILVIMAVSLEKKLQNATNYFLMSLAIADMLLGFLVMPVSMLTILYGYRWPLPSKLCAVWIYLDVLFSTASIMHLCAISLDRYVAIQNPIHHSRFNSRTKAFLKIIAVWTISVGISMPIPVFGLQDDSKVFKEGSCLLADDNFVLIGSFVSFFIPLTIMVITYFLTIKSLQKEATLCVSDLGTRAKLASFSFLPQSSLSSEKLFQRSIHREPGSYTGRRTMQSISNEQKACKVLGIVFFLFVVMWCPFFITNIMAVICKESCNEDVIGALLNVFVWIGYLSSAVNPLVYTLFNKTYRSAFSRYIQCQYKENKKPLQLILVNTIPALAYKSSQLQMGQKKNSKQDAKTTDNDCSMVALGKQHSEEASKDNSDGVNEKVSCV

SMILES	antagonist activity / potency in words
COc1c(OCCOCCN=[N+]=[N-])cccc1[C@H](O)C1CCN(CCc2ccc(F)cc2)CC1 [Compound 4]	retained antagonist activity
C#CCOCCOCCOc1cccc([C@H](O)C2CCN(CCc3ccc(F)cc3)CC2)c1OC [Compound 5]	slightly lower potency
COc1c(OCCOCCOc2cn(CCOCCOc3cccc([C@H](O)C4CCN(CCc5ccc(F)cc5)CC4)c3OC)nn2)cccc1[C@H](O)C1CCN(CCc2ccc(F)cc2)CC1 [Compound 15]	slightly lower potency
